This is an account of results in US20210187016A1, “METHOD OF TREATING NONALCOHOLIC STEATOHEPATITIS” (Vector Vitale IP LLC, priority 2019, published 2021).

A short description of this data set: Intraperitoneal administration to intact rats: accumulation of metals in liver and kidney tissues. The data set is classed as in vivo. To be noted: day 1 and day 7 after drug withdrawal, 3750 μg of zinc per kg intraperitoneally, 7 injections.

Description: Animals are placed in cages, 4 per cage, with free access to food/water. […] Administration is performed every other day, in the amount of 7 injections per animal (intraperitoneal method of drug administration). […] After the last injection, a half of the animals are maintained on hunger (for 12 hours) with free access to water. Upon expiration of this time period, the animals are taken out of the experiment. The second half of the animals continues to have free access to food/water for a further 7 days. On day 6 after the last injection, the animals are maintained on hunger (for 12 hours) with free access to water. Upon expiration of this time period, the animals are taken out of the experiment.
The total kidney, liver and muscle homogenates were prepared as follows. Organ excision and homogenization were carried out at a temperature of 1-4° C. […] The volume of the used buffer in ml was 5 times larger than the mass of isolated organs in grams. The isolated liver was perfused with chilled saline (0.9% NaCl) via the portal vein using a syringe. The minced liver was transferred to a homogenizer with a finely ground Teflon pestle and homogenized in chilled buffer. An isolated pair of kidneys was perfused with chilled saline, released from adipose tissue and minced with scissors. […]

`CC(=O)[O-].CC(=O)[O-].[Zn+2]` [Zn acetate, Zinc acetate]: the “Zinc level in liver and kidney tissues” value was “significantly increased”.
